Read-outs that look alike come from different tables or passages of the source.
Key:
[1] = tested on: RH7777 rat hepatoma cells; assay: SRB cytotoxicity assay, RH7777 control cell line; assay type: cell-based; conditions: Rattus norvegicus, RH7777, 96 h, read-out: IC50 RH7777
Experimental: (§1) For in vitro cytotoxicity screening, 1000 to 5000 cells were plated into each well of 96-well plates depending on growth rate, and exposed to different concentrations of a test compound for 96 h in three to five replicates. All the compounds were dissolved in dimethyl sulfoxide at 5 to 20 mM, and diluted to desired concentrations in complete culture medium. Cell numbers at the end of the drug treatment were measured by the SRB assay (Gududuru et al., “Synthesis and Biological Evaluation of Novel Cytotoxic Phospholipids for Prostate Cancer,” Bioorg. Med. Chem. Lett. 14:4919-4923 (2004); Rubinstein et at., “Comparison of in vitro Anticancer-Drug-Screening Data Generated with a Tetrazolium Assay Versus a Protein Assay Against a Diverse Panel of Human Tumor Cell Lines,” J. Naatl, Cancer Inst. 82:1113-1118 (1990), each of which is hereby incorporated by reference in its entirety). Briefly, the cells were fixed with 10% of trichloroacetic acid, stained with 0.4% SRB, and the absorbances at 540 nm was measured using a plate reader (DYNEX Technologies, Chantilly, Va.).
(§2) The antiproliferative activity of all the synthesized compounds was evaluated against five human prostate cancer cell lines and in RH7777 cells (negative control) using the sulforhodamine B (SRB) assay (see description in Example 5 above).
(§3) The chosen cell lines represent different basal levels of active AKT and LPL receptor expression (discussed later). Cells were exposed to a wide range of concentrations (0 to 100 μM) of the indicated compound for 96 h. Cell numbers at the end of treatment were measured using the sulforhodamine B (SRB) assay^5.
(§4) Cells were exposed to a wide range of concentrations (0 to 100 μM) of the particular compound for 96 h in 96 well plates. Cells were fixed with 10% trichloroacetic acid, washed five times with water. The plates were air dried overnight and fixed cells were stained with SRB solution. The cellular protein-bound SRB was measured at 540 nm using a plate reader. Cell numbers at the end of the treatment were measured.
as §4, with “96-well” for “96 well”, “calculated as a percentage of untreated control.” for “measured.”

[2] = tested on: DU-145 human prostate cancer cells; assay: SRB cytotoxicity assay, DU-145; assay type: cell-based; conditions: Homo sapiens, 96 h
Experimental: as §1, §2, §3, §4
as §4, with “96-well” for “96 well”, “calculated as a percentage of untreated control.” for “measured.”

[3] = tested on: PC-3 human prostate cancer cells; assay: SRB cytotoxicity assay, PC-3; assay type: cell-based; conditions: Homo sapiens, 96 h, read-out: IC50 PC-3
Experimental: as §1, §2, §3, §4
as §4, with “96-well” for “96 well”, “calculated as a percentage of untreated control.” for “measured.”

[4] = tested on: LNCaP human prostate cancer cells; assay: SRB cytotoxicity assay, LNCaP; assay type: cell-based; conditions: Homo sapiens, LNCaP, 96 h, read-out: IC50 LNCaP
Experimental: as §1, §2, §3, §4
as §4, with “96-well” for “96 well”, “calculated as a percentage of untreated control.” for “measured.”

[5] = tested on: PPC-1 human prostate cancer cells; assay: SRB cytotoxicity assay, PPC-1; assay type: cell-based; conditions: Homo sapiens, PPC-1, 96 h, read-out: IC50 PPC-1
Experimental: (§5) Dr. Mitchell Steiner at University of Tennessee Health Science Center, kindly provided PPG-1 and TSU-PrI cells.
as §1, §2, §3, §4
as §4, with “96-well” for “96 well”, “calculated as a percentage of untreated control.” for “measured.”

[6] = tested on: TSU-Pr1 human prostate cancer cells; assay: SRB cytotoxicity assay, TSU-Pr1; assay type: cell-based; conditions: Homo sapiens, TSU-Pr1, 96 h, read-out: IC50 TSU-Pr1
Experimental: as §5, §1, §2, §3, §4
as §4, with “96-well” for “96 well”, “calculated as a percentage of untreated control.” for “measured.”

[7] = tested on: human breast cancer cell line (MCF-7); assay: SRB cytotoxicity assay, MCF-7; assay type: cell-based; conditions: Homo sapiens, MCF7, read-out: IC50 MCF-7
Experimental: as §1
In vitro cytotoxicity assay was performed by the same sulforhodamine B (SRB) assay (described above). The compounds shown in Table 8 below where tested for activity against the breast cancer and ovarian cancer cell lines.
as §3, §4

[8] = tested on: AKT phosphorylation (Pi-AKT) in LNCaP cells; assay: AKT phosphorylation by Western blot in LNCaP cells; assay type: cell-based, human; conditions: Example 14, 10 μM
Experimental: As another assessment of cytotoxicity, AKT inhibition was measured. […] The immunoblots were visualized by enhanced, chemiluminescence, and changes of relative levels of phospho-AKT compared to total AKT by analog treatment were quantified by densitometric analysis.
Prostate cell line LNCaP cells were treated with 30 μM of the compound of Formula: [drawing 54]
for the indicated period and time. The active form of AKT (Pi-AKT) and the β-Actin were quantified by Western blot analysis. […]
Prostate cell line LNCaP cells were treated with 10 μM of the compound of Formula: [drawing 55]
for the indicated period and time. The active form of AKT (Pi-AKT) and AKT were quantified by Western blot analysis. […]
Prostate cell line LNCaP cells were treated with 10 μM of the compound of Formula [drawing 56]
for the indicated period and time. The active form of AKT (Pi-AKT), AKT and β-Actin were quantified by Western blot analysis. […]

[9] = DU-145, Example 11 table, read-out: IC50 DU145
[10] = Table 8, breast cancer cell line
[11] = DU-145, read-out: IC50 DU-145, Table 4

With CC(C)(C)OC(=O)N[C@H](CO)C(=O)NCCCCCCCCCCCCNC(=O)[C@@H](CO)NC(=O)OC(C)(C)C as the compound, how does the IC50 ([1]; Example 11 table) read?
Its IC50 is 8.5 µM.

And the IC50 [2, 9]?
The IC50 was over 20 µM.

And the IC50 ([3]; Example 11 table)?
Its IC50 is over 20 µM.

And the IC50 ([4]; Example 11 table)?
The IC50 was 12.5 µM.

What about the IC50 ([5]; Example 11 table) of the same compound?
Its IC50 is over 20 µM.

And the IC50 ([6]; Example 11 table)?
Its IC50 is 3.7 µM.

And the IC50 ([7]; Example 11 table, 96 h)?
Its IC50 is 10.6 µM.

For CCCCCCCCCCCCCCCCCCNC(=O)[C@@H]1CSC(CCCCCCCCCCCC)N1 (mixture of isomers) [Compound 7, (2RS, 4R)-2-Dodecylthiazolidine-4-carboxylic acid octadecylamide], which IC50 ([1]; Table 3, control cell line) is on record?
The IC50 was about 20 µM.

And the IC50 ([2]; DU-145, read-out: IC50 DU-145, Table 3)?
Its IC50 is 8.9 µM.

What about the IC50 ([3]; Table 3) of the same compound?
The IC50 was 15 µM.

And the IC50 ([4]; Table 3)?
Its IC50 is 11.9 µM.

And the IC50 ([5]; Table 3)?
Its IC50 is 13 µM.

What about the IC50 ([6]; Table 3) of the same compound?
Its IC50 is 10.7 µM.

And the IC50 [7, 10]?
The IC50 was 10.4 µM.

For O=C(O)[C@@H]1CSC(c2ccc(-c3ccccc3)cc2)N1 (stereo partly drawn), which IC50 ([1]; Example 11 table) is on record?
Its IC50 is over 100 µM.

And the IC50 [2, 9]?
The IC50 was over 100 µM.

And the IC50 ([3]; Example 11 table)?
Its IC50 is over 100 µM.

And the IC50 ([4]; Example 11 table)?
The IC50 was 71 µM.

And the IC50 ([5]; Example 11 table)?
The IC50 was over 100 µM.

And the IC50 ([6]; Example 11 table)?
The IC50 was about 100 µM.

And the IC50 ([7]; Example 11 table, 96 h)?
The IC50 was over 100 µM.

For CCCCCCCCCCCCCCCCCCNC(=O)[C@@H]1CSC(c2cc(F)cc(F)c2)N1 (mixture of isomers) [Compound 23, (2RS, 4R)-2-(3,5-Difluoro-phenyl)-thiazolidine-4-carboxylic acid octadecylamide], which IC50 ([1]; Table 4, control cell line) is on record?
The IC50 was over 20 µM.

And the IC50 [2, 11]?
The IC50 was over 20 µM.

And the IC50 ([3]; Table 4)?
The IC50 was over 20 µM.

And the IC50 ([4]; Table 4)?
The IC50 was 11.2 µM.

What about the IC50 ([5]; Table 4) of the same compound?
Its IC50 is 10.6 µM.

What about the IC50 ([6]; Table 4) of the same compound?
The IC50 was over 20 µM.

And the melting point?
The melting point was 113 °C.

With CCCCCCCCCCCCCCCCCCNC[C@H](CO)NC.Cl as the compound, how does the “Time to almost complete inhibition of AKT phosphorylation” value [8] read?
The value was at most 1 h.

What about the “Relative abundance (Pi-AKT/AKT)” value ([8]; 1 h, (−) control 1.00) of the same compound?
The value was 0.07.

What about the “Relative abundance (Pi-AKT/β-Actin)” value ([8]; 1 h, (−) control 1.00) of the same compound?
Its value is 0.08.

What about the “Relative abundance (Pi-AKT/AKT)” value ([8]; 2 h) of the same compound?
The value was 0.06.

What about the “Relative abundance (Pi-AKT/β-Actin)” value ([8]; 2 h) of the same compound?
Its value is 0.06.

And the “Relative abundance (Pi-AKT/AKT)” value ([8]; 3 h)?
The value was 0.04.

What about the “Relative abundance (Pi-AKT/β-Actin)” value ([8]; 3 h) of the same compound?
The value was 0.04.

And the “Relative abundance (Pi-AKT/AKT)” value ([8]; 4 h)?
Its value is 0.12.

And the “Relative abundance (Pi-AKT/β-Actin)” value ([8]; 4 h)?
Its value is 0.11.

What about the “Relative abundance (Pi-AKT/AKT)” value ([8]; 6 h) of the same compound?
Its value is 0.12.

What about the “Relative abundance (Pi-AKT/β-Actin)” value ([8]; 6 h) of the same compound?
The value was 0.10.

And the “Relative abundance (Pi-AKT/AKT)” value ([8]; 8 h)?
Its value is 0.14.

And the “Relative abundance (Pi-AKT/β-Actin)” value ([8]; 8 h)?
Its value is 0.11.

What about the “Relative abundance (Pi-AKT/AKT)” value ([8]; 10 h) of the same compound?
The value was 0.14.

What about the “Relative abundance (Pi-AKT/β-Actin)” value ([8]; 10 h) of the same compound?
The value was 0.43.

With CCCCCCCCCCCCCCCCCCNC(=O)[C@@H]1CSC(c2c(Cl)cccc2Cl)N1 (mixture of isomers) [Compound 24, (2RS, 4R)-2-(2,6-Dichloro-phenyl)-thiazolidine-4-carboxylic acid octadecylamide] as the compound, how does the IC50 ([1]; Table 4, control cell line) read?
Its IC50 is over 20 µM.

And the IC50 [2, 11]?
The IC50 was over 20 µM.

What about the IC50 ([3]; Table 4) of the same compound?
The IC50 was over 20 µM.

What about the IC50 ([4]; Table 4) of the same compound?
The IC50 was 13.1 µM.

And the IC50 ([5]; Table 4)?
Its IC50 is 17.1 µM.

What about the IC50 ([6]; Table 4) of the same compound?
The IC50 was about 20 µM.

What about the IC50 [7, 10] of the same compound?
The IC50 was 17.7 µM.

For O=C(O)[C@@H]1CSC(c2cccnc2)N1 (stereo partly drawn), which IC50 ([1]; Example 11 table) is on record?
The IC50 was over 100 µM.

What about the IC50 [2, 9] of the same compound?
Its IC50 is over 100 µM.

And the IC50 ([3]; Example 11 table)?
The IC50 was over 100 µM.

And the IC50 ([4]; Example 11 table)?
The IC50 was over 100 µM.

What about the IC50 ([5]; Example 11 table) of the same compound?
Its IC50 is over 100 µM.

What about the IC50 ([6]; Example 11 table) of the same compound?
Its IC50 is about 100 µM.

What about the IC50 ([7]; Example 11 table, 96 h) of the same compound?
Its IC50 is over 100 µM.
